From patent US9802902B2, “Antifungal compound” (priority 2012, dated 2017)

Key:
[1] = test system: C. albicans keratitis; test: Contact lens-associated C. albicans keratitis model in mouse; type: in vivo; settings: 1000 μg/mL topical eye drops; for corneal counts of C. albicans: 6 eyeballs homogenized; for clinical score (slit lamp, grade 0-4): after treatment, ± standard deviation
Text: 8-week-old adult C57BL/6 mice (18-22 g) were used for animal studies. All mice eyes were examined for absence of ocular pathology before experiments were initiated. The experimental protocol was approved by the Institutional Animal Care and Use Committee of Biological Resource Centre, Agency for Science, Technology and Research (A*STAR), Singapore.
The black mouse keratitis model was established by employing contact lens biofilm infection, which is described as follows. The mice were anesthetized by ketamine (150 mg/kg) and xylazine ([…]) via intraperitoneal injection (I.P.). Additional topical anesthetic in the form of 0.5% tetracaine hydrochloride eye drops (Bausch & Lomb, Tampa, Fla.) was also administered.
A total of 45 mice were used in this study. A 1-mm filter paper disc moistened with 99% 1-heptanol (Sigma-Aldrich, Lausanne, Switzerland) was placed on the center of the cornea for 40 seconds. The corneal epithelium was traumatically wiped out and the eyes were rinsed with PBS to remove any remaining traces of 1-heptanol. A 2 mm-diameter punch from the contact lense with C. albicans biofilm was then placed on the denuded cornea surface. The contact lenses were kept inside the eyes by closing the eye lids with silk sutures. The C. albicans cells were grown on the eyeball 18 hours after inoculation; eye ulcer with a leathery, tough, raised surface was observed. A disease grading from 0 (no disease) to 4 (severe disease) was established for evaluating treatment efficacy (see Table 1 below). The mice were immune suppressed by subcutaneous injection of cyclophosphamide (Sigma-Aldrich, […]).
To investigate the potential application of these two compounds in fungi keratitis treatment, C. albicans keratitis model was established using mouse. The contact lenses with C. albicans biofilm were kept inside the mice eyes by closing the lids with silk sutures. 18 hours after inoculation, the C. albicans cells were grown on the eyeball. Eye ulcer with a leathery, tough, raised surface was observed. The animals were randomly treated with 5 topical eye drop solutions: saline solution (control), 1000 μg/mL of PIM-45, 1000 μg/mL of IBN-1, 1000 μg/mL of amphotericin B, and 1000 μg/mL of fluconazole. Eye drops (20 μl each) were administered to the mice every 5 minutes during the first hour and every 30 minutes during the next 7 hours. After a pause of 16 hours, eye drops were administered at hourly intervals for another 8 hours. All mice were sacrificed 16 hours after the administration of the last eye drop. The treated eyeballs were collected immediately; three eyeballs from each group were collected for histology, and the remaining 6 eyeballs were homogenized for quantitative fungal recovery study. The fixed eyeballs were embedded in paraffin, sectioned and stained with Grocott's methenamine silver by standard protocol.

[2] = test system: C. albicans biofilms supported on contact lenses; test: Biofilm susceptibility (in vitro keratitis model treatment); type: cell-based, Candida albicans
Method: The contact lenses were washed with PBS and immersed in YM broth overnight before they were punched into smaller pieces of 2 mm in diameter. To grow C. albicans biofilms, the lenses were placed in 6-well tissue culture plates with 4 mL of yeast suspension (10^7 CFU/mL) and incubated for 3 hours at 22° C. The contact lenses were gently washed with PBS to remove non-adherent yeast cells and immersed in YM broth for 48 hours at 22° C. with shaking at 100 rpm. Biofilms were quantified using direct plate counting. The yeast cells on contact lens were detached and dispersed in PBS by ultrasonication for 3 minutes. After making 10-fold dilutions, 20-μL sampling aliquots were plated on solid Lysogeny broth (LB) plate and incubated at 22° C. for 48 hours before the colony number was counted for determination of surviving CFU. Data from triplicate plate counts were averaged.
The C. albicans biofilms supported on contact lenses were transferred to fungicidal agent-containing PBS, and incubated at 22° C. for 24 hours. The biofilms were ultrasonicated for 3 minutes, and then serially diluted in PBS. The viable yeast cells were enumerated as described above.

## OC(Cn1cncn1)(Cn1cncn1)c1ccc(F)cc1F [fluconazole]
[1]
  hyphal invasion into cornea (histology): fungal hyphae extended through the epithelium and into the anterior stroma
  corneal counts of C. albicans: 5.1 lg CFU/eye
  clinical score (slit lamp, grade 0-4): 3.5±0.5
[2]; at 250 ppm
  destruction of C. albicans biofilm: only slightly destroyed

## C[C@@H]1[C@H](O)[C@@H](C)/C=C/C=C/C=C/C=C/C=C/C=C/C=C/[C@H](O[C@@H]2O[C@H](C)[C@@H](O)[C@H](N)[C@@H]2O)C[C@@H]2O[C@](O)(C[C@@H](O)C[C@@H](O)[C@H](O)CC[C@@H](O)C[C@@H](O)CC(=O)O[C@H]1C)C[C@H](O)[C@H]2C(=O)O [amphotericin B]
[1]
  hyphal invasion into cornea (histology): reduced the maximal depth of hyphal invasion into cornea
  corneal counts of C. albicans: 3.3 lg CFU/eye
  clinical score (slit lamp, grade 0-4): 2.2±0.4
[2]; C. albicans biofilm on contact lens, PBS, 22° C., 24 hours
  effective concentration in killing biofilm-grown yeast cells: 250 ppm
